Assay results from paper PMC10023679, “Amide-to-ester substitution as a stable alternative to N-methylation for increasing membrane permeability in cyclic peptides” (Nature Communications, 2023).
Values belong to the compound of their own block, whether it stands above or below them. Non-standard residues stand in square brackets, D forms with d. Residues, ends and D or L forms follow the SMILES beside them. NMeF = CN[C@@H](Cc1ccccc1)C(=O)O; PhLac = O=C(O)[C@@H](O)Cc1ccccc1; Hica(2S) = CC(C)C[C@H](O)C(=O)O; NMeL = CN[C@@H](CC(C)C)C(=O)O; dHica = CC(C)C[C@@H](O)C(=O)O; dNMeL = CN[C@H](CC(C)C)C(=O)O

Columns and labels:
in vitro = in vitro ADME
[1] = 1,9-decadiene-water distribution coefficient; type: physicochemical; settings: decadiene and aqueous buffer
[2] = Caco-2 assay (permeability across cell monolayers); type: in vitro ADME; settings: Caco-2, 1 μM compounds in HBSS (pH 7.4) containing 10 mM HEPES and 1% DMSO, 3 h incubation at 37 °C, read-out: Caco-2 permeability Pa
[3] = Stability in simulated intestinal fluid (SIF); type: in vitro ADME; settings: pH 6.8, 37 °C, at 4 h
Description: (§1) The stability assay of peptides in SIF was conducted according to United States Pharmacopeia & National Formulary (USP 25-NF 20)[64] and the previous report[65] with some modifications as follows. SIF used in this study was prepared by dissolving pancreatin (1.25 mg/mL) (Sigma, P7545, 8 × USP specifications) in 50 mM phosphate buffer at pH 6.8. The solution was vortexed for 1 min, sonicated for 15 min, centrifuged at 20,000 × g for 10 min, and filtered before use. 57 μL of SIF was incubated at 37 °C for 15 min and 3 μL of 1 μM peptide solution in DMSO was added to the warmed […]. After 1, 2, or 4 h, 60 μL of ice-cold ultra-pure water containing 5% trifluoroacetic acid was added and 120 μL of 30% acetonitrile in ultra-pure water was added. The samples were filtered and injected into UPLC.

[4] = Stability in simulated gastric fluid (SGF); type: in vitro ADME; settings: pH 1.2, 37 °C, at 4 h
Description: as §1, with “SGF” for “SIF”, “pepsin (3.6” for “pancreatin (1.25”, “P7012, 3357 Unit/mg)” for “P7545, 8 × USP specifications)”, “an aqueous solution of 2 mg/mL sodium chloride (NaCl)” for “50 mM phosphate buffer”, “1.2.” for “6.8.”
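Wherever Pe (PAMPA), CP1-Y1F-L2K series is given: filter plate membrane of 1% soybean lecithin in dodecane, donor and acceptor in 5% DMSO/PBS, incubated at 25 °C, peptide in both compartments measured by LC-MS.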

Compound: CC(C)C[C@@H]1C(=O)N[C@H](C(C)C)C(=O)N[C@H](C)C(=O)N2CCC[C@@H]2C(=O)N[C@H](CC(C)C)C(=O)N[C@H](C(C)C)C(=O)N[C@H](C)C(=O)N2CCC[C@@H]2C(=O)N1C (cyclo([dA][dP][dL][dV][dA][dP][dNMeL][dV]))
- Papp at 16 h, 3 μM (in vitro; PAMPA): 0.01 ×10⁻⁶ cm/s

Compound: CC(C)C[C@@H]1C(=O)N[C@H](C(C)C)C(=O)N[C@H](C)C(=O)N2CCC[C@@H]2C(=O)O[C@H](CC(C)C)C(=O)N[C@H](C(C)C)C(=O)N[C@H](C)C(=O)N2CCC[C@@H]2C(=O)N1C (cyclo([dA][dP][dNMeL][dV][dA][dP][dHica][dV]))
- Papp at 16 h, 3 μM (in vitro; PAMPA): 0.03 ×10⁻⁶ cm/s

Compound: CC(C)C[C@@H]1NC(=O)[C@H](CC(C)C)N(C)C(=O)[C@@H](C(C)C)NC(=O)[C@H](C)NC(=O)[C@H](C)NC(=O)[C@H]2CCCN2C(=O)[C@@H](CC(C)C)NC(=O)[C@@H]2CCCN2C(=O)[C@H](CC(C)C)NC1=O (relative stereo)
- Papp at 16 h, 3 μM (in vitro; PAMPA): 0.1 ×10⁻⁶ cm/s

Compound: CC(C)C[C@@H]1NC(=O)[C@H](CC(C)C)N(C)C(=O)[C@@H](C(C)C)NC(=O)[C@H](C)NC(=O)[C@H](C)OC(=O)[C@H]2CCCN2C(=O)[C@@H](CC(C)C)NC(=O)[C@@H]2CCCN2C(=O)[C@H](CC(C)C)NC1=O (relative stereo)
- Papp at 16 h, 3 μM (in vitro; PAMPA): 1.1 ×10⁻⁶ cm/s

Compound: CC(C)C[C@@H]1NC(=O)[C@@H](CC(C)C)NC(=O)[C@H](CCCCN)NC(=O)[C@H](Cc2ccccc2)N(C)C(=O)[C@H]2CCCN2C(=O)[C@H](CC(C)C)NC1=O [CP1-Y1F-L2K NMe] (cyclo(K[dL]LL[dP][NMeF]))
- Papp (in vitro; PAMPA): < 0.00075 ×10⁻⁶ cm/s

Compound: CC(C)C[C@@H]1NC(=O)[C@@H](CC(C)C)NC(=O)[C@H](CCCCN)NC(=O)[C@H](Cc2ccccc2)OC(=O)[C@H]2CCCN2C(=O)[C@H](CC(C)C)NC1=O [CP1-Y1F-L2K O] (cyclo(K[dL]LL[dP][PhLac]))
- Pe (PAMPA), CP1-Y1F-L2K series (in vitro): 4.9 ×10⁻⁶ cm/s
- Papp (in vitro; PAMPA): 0.0049 ×10⁻⁶ cm/s

Compound: CC(C)C[C@@H]1NC(=O)[C@@H](CC(C)C)NC(=O)[C@H](CCCCN)NC(=O)[C@H](Cc2ccccc2)NC(=O)[C@H]2CCCN2C(=O)[C@H](CC(C)C)NC1=O [CP1-Y1F-L2K] (cyclo(FK[dL]LL[dP]))
- Papp (in vitro; PAMPA): < 0.0007 ×10⁻⁶ cm/s

Compound: CC(C)C[C@@H]1NC(=O)[C@@H](CC(C)C)NC(=O)[C@H](CO)NC(=O)[C@H](Cc2ccccc2)N(C)C(=O)[C@H]2CCCN2C(=O)[C@H](CC(C)C)NC1=O [CP1-Y1F-L2S NMe] (cyclo(LL[dP][NMeF]S[dL]))
- Papp (in vitro; PAMPA): 0.5 ×10⁻⁶ cm/s

Compound: CC(C)C[C@@H]1NC(=O)[C@@H](CC(C)C)NC(=O)[C@H](CO)NC(=O)[C@H](Cc2ccccc2)OC(=O)[C@H]2CCCN2C(=O)[C@H](CC(C)C)NC1=O [CP1-Y1F-L2S O] (cyclo(LL[dP][PhLac]S[dL]))
- Papp (in vitro; PAMPA): 4.1 ×10⁻⁶ cm/s

Compound: CC(C)C[C@@H]1NC(=O)[C@@H](CC(C)C)NC(=O)[C@H](CO)NC(=O)[C@H](Cc2ccccc2)NC(=O)[C@H]2CCCN2C(=O)[C@H](CC(C)C)NC1=O [CP1-Y1F-L2S] (cyclo(FS[dL]LL[dP]))
- Papp (in vitro; PAMPA): 0.3 ×10⁻⁶ cm/s

Compound: CC(=O)N[C@@H](Cc1ccccc1)C(=O)O[C@@H](Cc1ccccc1)C(N)=O [D1]
- Papp (in vitro; PAMPA, pH 7.4): 1.2 ×10⁻⁶ cm/s
- log Ddec/w (1,9-decadiene–water distribution coefficient) [1]: –1.17 ± 0.01

Compound: CC(C)C[C@@H]1NC(=O)[C@H]2CCCN2C(=O)[C@H](CC(C)C)N(C)C(=O)[C@@H](C(C)C)NC(=O)[C@H](CC(C)C)NC(=O)[C@H]2CCCN2C(=O)[C@H](CC(C)C)N(C)C(=O)[C@@H](C(C)C)NC1=O [D8.21, reference compound] (cyclo(L[dV][NMeL][dP]L[dV][NMeL][dP]))
- Papp at 16 h, 3 μM (in vitro; PAMPA): 8.2 ×10⁻⁶ cm/s

Compound: CC(C)C[C@@H]1NC(=O)[C@H]2CCCN2C(=O)[C@H](CC(C)C)NC(=O)[C@@H](C(C)C)NC(=O)[C@H](CC(C)C)NC(=O)[C@H]2CCCN2C(=O)[C@H](CC(C)C)N(C)C(=O)[C@@H](C(C)C)NC1=O [D8.21-amide] (cyclo(L[dP]L[dV][NMeL][dP]L[dV]))
- Papp at 16 h, 3 μM (in vitro; PAMPA): 1.6 ×10⁻⁶ cm/s

Compound: CC(C)C[C@@H]1NC(=O)[C@H]2CCCN2C(=O)[C@H](CC(C)C)OC(=O)[C@@H](C(C)C)NC(=O)[C@H](CC(C)C)NC(=O)[C@H]2CCCN2C(=O)[C@H](CC(C)C)N(C)C(=O)[C@@H](C(C)C)NC1=O [D8.21-ester] (cyclo(L[dV][NMeL][dP]L[dV][Hica(2S)][dP]))
- Papp at 16 h, 3 μM (in vitro; PAMPA): 5.8 ×10⁻⁶ cm/s

Compound: CC(C)C[C@@H]1C(=O)N[C@H](C(C)C)C(=O)N[C@H](C)C(=O)N2CCC[C@@H]2C(=O)N(C)[C@H](CC(C)C)C(=O)N[C@H](C(C)C)C(=O)N[C@H](C)C(=O)N2CCC[C@@H]2C(=O)N1C [D8.31, reference compound] (cyclo([dA][dP][dNMeL][dV][dA][dP][dNMeL][dV]))
- Papp at 16 h, 3 μM (in vitro; PAMPA): 0.2 ×10⁻⁶ cm/s

Compound: CC[C@H](C)[C@@H]1NC(=O)[C@H](Cc2ccc(O)cc2)NC(=O)[C@@H](N)CSSC[C@@H](C(=O)N2CCC[C@H]2C(=O)N[C@@H](CC(C)C)C(=O)NCC(N)=O)NC(=O)[C@H](CC(N)=O)NC(=O)[C@H](CCC(N)=O)NC1=O [oxytocin, reference compound]
- Fraction degraded in SIF ([3]; SIF-containing pancreatin): more than 90%
- metabolised at 4 h, 0.05 μM ([3]; simulated intestinal fluid (SIF) containing pancreatin, read-out: Fraction degraded in SIF): 94%

Compound: C[C@H](N)C(=O)NCC(=O)N[C@H]1CSSC[C@@H](C(=O)O)NC(=O)[C@H](CO)NC(=O)[C@H]([C@@H](C)O)NC(=O)[C@H](Cc2ccccc2)NC(=O)[C@H]([C@@H](C)O)NC(=O)[C@H](CCCCN)NC(=O)[C@H](Cc2c[nH]c3ccccc23)NC(=O)[C@H](Cc2ccccc2)NC(=O)[C@H](Cc2ccccc2)NC(=O)[C@H](CC(N)=O)NC(=O)[C@H](CCCCN)NC1=O [somatostatin, reference compound]
- Fraction degraded in SGF ([4]; SGF-containing pepsin): more than 90%
- metabolised at 4 h, 0.05 μM ([4]; simulated gastric fluid (SGF) containing pepsin, read-out: Fraction degraded in SGF): 98%

More lines, now with the values ahead:

- Papp (in vitro; PAMPA): 1.3 ×10⁻⁶ cm/s
- Papp [2]: 0.2 ×10⁻⁶ cm/s
Compound: CC(C)C[C@@H]1NC(=O)[C@@H](CC(C)C)OC(=O)[C@H](CC(C)C)NC(=O)[C@H](Cc2ccc(O)cc2)NC(=O)[C@H]2CCCN2C(=O)[C@H](CC(C)C)NC1=O [DP3] (cyclo(LL[dP]YL[dHica]))

- Papp (in vitro; PAMPA): 4.2 ×10⁻⁶ cm/s
- Papp [2]: 1.2 ×10⁻⁶ cm/s
Compound: CC(C)C[C@@H]1NC(=O)[C@H](Cc2ccc(O)cc2)NC(=O)[C@H]2CCCN2C(=O)[C@H](CC(C)C)NC(=O)[C@H](CC(C)C)OC(=O)[C@@H](CC(C)C)NC1=O [DP4] (cyclo(L[dL][Hica(2S)]L[dP]Y))

- Papp (in vitro; PAMPA): 4.4 ×10⁻⁶ cm/s
- Papp [2]: 2.8 ×10⁻⁶ cm/s
Compound: CC(C)C[C@@H]1NC(=O)[C@H](Cc2ccc(O)cc2)NC(=O)[C@H]2CCCN2C(=O)[C@H](CC(C)C)OC(=O)[C@H](CC(C)C)NC(=O)[C@@H](CC(C)C)NC1=O [DP5] (cyclo(L[dL]L[Hica(2S)][dP]Y))

- log Ddec/w (1,9-decadiene–water distribution coefficient) [1]: –1.24 ± 0.01
Compound: CC(=O)N[C@@H](Cc1ccccc1)C(=O)N(C)[C@@H](Cc1ccccc1)C(N)=O [M1] (Ac-Phe-[NMeF]-NH2)

- Papp (in vitro; PAMPA, pH 7.4): 0.2 ×10⁻⁶ cm/s
- log Ddec/w (1,9-decadiene–water distribution coefficient) [1]: –1.62 ± 0.02
Compound: CC(=O)N[C@@H](CC(C)C)C(=O)N(C)[C@@H](Cc1ccccc1)C(N)=O [M2] (Ac-Leu-[NMeF]-NH2)

- Papp (in vitro; PAMPA, pH 7.4): 0.1 ×10⁻⁶ cm/s
- log Ddec/w (1,9-decadiene–water distribution coefficient) [1]: –2.13 ± 0.02
Compound: CC(=O)N[C@@H](CC(C)C)C(=O)N(C)[C@@H](CC(C)C)C(N)=O [M3]

- Papp (in vitro; PAMPA): 1 ×10⁻⁶ cm/s
- Papp [2]: 0.3 ×10⁻⁶ cm/s
Compound: CC(C)C[C@@H]1NC(=O)[C@@H](CC(C)C)NC(=O)[C@H](CC(C)C)N(C)C(=O)[C@H](Cc2ccc(O)cc2)NC(=O)[C@H]2CCCN2C(=O)[C@H](CC(C)C)NC1=O [MP2] (cyclo(LL[dP]Y[NMeL][dL]))

- Papp at 16 h, 2 μM (in vitro; PAMPA): 0.6 ×10⁻⁶ cm/s
- Papp at 3 h, 1 μM ([2]; human): 0.2 ×10⁻⁶ cm/s
Compound: CC(C)C[C@@H]1NC(=O)[C@@H](CC(C)C)N(C)C(=O)[C@H](CC(C)C)NC(=O)[C@H](Cc2ccc(O)cc2)NC(=O)[C@H]2CCCN2C(=O)[C@H](CC(C)C)NC1=O [MP3] (cyclo(LL[dP]YL[dNMeL]))

- Papp (in vitro; PAMPA): 2.5 ×10⁻⁶ cm/s
- Papp [2]: 0.5 ×10⁻⁶ cm/s
Compound: CC(C)C[C@@H]1NC(=O)[C@H](Cc2ccc(O)cc2)NC(=O)[C@H]2CCCN2C(=O)[C@H](CC(C)C)NC(=O)[C@H](CC(C)C)N(C)C(=O)[C@@H](CC(C)C)NC1=O [MP4] (cyclo(L[dL][NMeL]L[dP]Y))

- Papp (in vitro; PAMPA): 1.7 ×10⁻⁶ cm/s
- Papp [2]: 1.2 ×10⁻⁶ cm/s
Compound: CC(C)C[C@@H]1NC(=O)[C@H](Cc2ccc(O)cc2)NC(=O)[C@H]2CCCN2C(=O)[C@H](CC(C)C)N(C)C(=O)[C@H](CC(C)C)NC(=O)[C@@H](CC(C)C)NC1=O [MP5] (cyclo(L[NMeL][dP]YL[dL]))

- log Ddec/w (1,9-decadiene–water distribution coefficient) [1]: –2.75 ± 0.01
Compound: CC(=O)N[C@@H](Cc1ccccc1)C(=O)N[C@@H](Cc1ccccc1)C(N)=O [P1] (Ac-Phe-Phe-NH2)
